Read-outs that look alike come from different tables or passages of the source.
Biological target: T1, human MRGPR X4 (Homo sapiens, UniProt Q96LA9)
T1 construct: expressed in transfected cells
Assay: MRGPR X4 antagonist activity, IP-One Gq HTRF assay in stably transfected HEK cells
Assay type: cell-based
Experimental: HEK cells stably transfected to express human MIRGPR X4 were maintained in an incubator at 37° C. with 5% CO2 and grown in DMEM media with 10% fetal bovine serum (FBS) and […] each of sodium pyruvate, Glutamax, penicillin/streptomycin, and Geneticin. HEK cells stably transfected to express mouse MRGPR A1 were maintained in the same incubator and grown in DMEM media with 10% FBS, 1% each of sodium pyruvate, Glutamax, penicillin/streptomycin, Geneticin, and 2.2 mg/mL Hygromycin.
Cells were plated in a 384-well assay plate at 20,000 cells per well in 12 μL of Opti-MEM and kept in an incubator overnight. On the day of the assay, compounds solubilized at 10 mM in DMSO were added as a 10-point curve (10 uM final top concentration with 1:3 serial dilutions) using a Tecan D300E digital dispenser. Agonists were diluted in assay buffer (final concentrations of 5.7 mM Tris-HCl, 43 mM NaCl, 50 mM LiCl, pH=8) and 2 μL of the appropriate agonist are added to each well. Final concentrations of agonists were 10 μM bilirubin, 20 μM deoxycholic acid, or 100 μM conjugated bilirubin (obtained from Lee Biosolutions, catalog #910-12). Final concentrations of DMSO were kept consistent across the plate. Plates were incubated in the dark for 1 h at 37° C. and then for 30 minutes at room temperature. IP-1 standards and HTRF detection reagents were added according to the IP-One—Gq Kit purchased from Cisbio (part number 62IPAPEJ) and incubated in the dark for 1 h at room temperature. The plate was read on a Molecular Devices SpectraMax iD5 plate reader. The HTRF ratio was calculated from the raw data and graphed using GraphPad Prism to calculate an IC50 value for each compound.

[1] = versus 20 μM deoxycholic acid agonist, HEK cells expressing human MRGPR X4, read-out: MRGPRX4 Antagonist Activity

T1 sequence (Q96LA9 whole entry): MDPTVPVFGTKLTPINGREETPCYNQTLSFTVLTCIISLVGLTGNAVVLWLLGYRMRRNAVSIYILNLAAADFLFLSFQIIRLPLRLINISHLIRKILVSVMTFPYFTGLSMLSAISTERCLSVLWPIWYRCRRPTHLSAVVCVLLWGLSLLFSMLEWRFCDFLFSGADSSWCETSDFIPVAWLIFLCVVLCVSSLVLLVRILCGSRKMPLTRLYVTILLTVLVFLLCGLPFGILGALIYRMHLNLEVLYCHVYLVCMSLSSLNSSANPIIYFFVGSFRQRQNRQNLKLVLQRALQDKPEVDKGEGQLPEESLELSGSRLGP

| SMILES | IC50 [1] | IC50 |
| --- | --- | --- |
| O=C(NCCn1cc(C2CCNCC2)nn1)c1nn(Cc2ccc(Cl)cc2)c2ccccc12 [Compound 146] | > 2500 nM | – |
| O=C(NCCn1cc(CN2CCS(=O)(=O)CC2)nn1)c1nn(Cc2ccc(Cl)cc2)c2ccccc12 [Compound 147] | > 2500 nM | – |
| O=C(CCc1cccnc1)Nc1nn(Cc2ccc(Cl)cc2)c2ccccc12 [Compound 148, N-(1-(4-chlorobenzyl)-1H-indazol-3-yl)-3-(pyridin-3-yl)-propanamide] | 1000 to 2500 nM | – |
| O=C(NCC(O)c1cccnc1)c1cn(Cc2ccc(Cl)cc2)c2ccccc12 (centres unmarked) [Compound 150] | – | 100 to 500 nM |
| Cc1ccc(CCNC(=O)c2cn(Cc3ccc(Cl)cc3)c3ccccc23)cn1 [Compound 151] | – | < 100 nM |
| Cc1ncccc1CCNC(=O)c1cn(Cc2ccc(Cl)cc2)c2ccccc12 [Compound 152, 1-(4-chlorobenzyl)-N-(2-(2-methylpyridin-3-yl)ethyl)-1H-indole-3-carboxamide] | – | < 100 nM |
| Cc1cccc(CCNC(=O)c2cn(Cc3ccc(Cl)cc3)c3ccccc23)n1 [Compound 153] | – | < 100 nM |
| O=C(NCCc1cncc(F)c1)c1cn(Cc2ccc(Cl)cc2)c2ccccc12 [Compound 154] | – | < 100 nM |
| COc1ncccc1CCNC(=O)c1cn(Cc2ccc(Cl)cc2)c2ccccc12 [Compound 155] | – | 100 to 500 nM |
| Cc1ccc(CCNC(=O)c2cn(Cc3ccc(Cl)cc3)c3ccccc23)c(C)n1 [Compound 156] | – | 100 to 500 nM |
| Cc1ccc(Cn2cc(C(=O)NCCc3ccccn3)c3ccccc32)cc1 [Compound 158] | – | 100 to 500 nM |
| Cc1ccc(Cn2cc(C(=O)NCCc3nc(C)cs3)c3ccccc32)cc1 [Compound 159] | – | 100 to 500 nM |
| Cc1ccc(Cn2cc(C(=O)NCCc3cccnc3)c3ccccc32)cc1 [Compound 160] | – | 100 to 500 nM |
| Cc1ccncc1CCNC(=O)c1cn(Cc2ccc(Cl)cc2)c2ccccc12 [Compound 161] | – | 100 to 500 nM |
| O=C(NCCc1cccc(F)c1)c1cn(Cc2ccc(Cl)cc2)c2ccccc12 [Compound 162] | – | 100 to 500 nM |
| O=C(NCCc1ccncc1)c1cn(Cc2ccc(Cl)cc2)c2ccccc12 [Compound 163] | – | 100 to 500 nM |
| COc1cccc(CCNC(=O)c2cn(Cc3ccc(Cl)cc3)c3ccccc23)c1 [Compound 164] | – | 100 to 500 nM |
| Cc1ccc(Cn2cc(C(=O)NCCc3nc4c(s3)CCCC4)c3ccccc32)cc1 [Compound 165] | – | 100 to 500 nM |
| O=C(NCCc1cccnc1)c1cn(Cc2ccc(OC(F)F)cc2)c2ccccc12 [Compound 166] | – | 100 to 500 nM |
| O=C(NCCc1ccccn1)c1cn(Cc2ccc(OC(F)F)cc2)c2ccccc12 [Compound 167] | – | 100 to 500 nM |
| COc1ccc(CCNC(=O)c2cn(Cc3ccc(Cl)cc3)c3ccccc23)cn1 [Compound 168] | – | 100 to 500 nM |
| Cc1ccc(Cn2cc(C(=O)NCCc3c[nH]c4ccccc34)c3ccccc32)cc1 [Compound 169] | – | 100 to 500 nM |
| O=C(NCCc1ccccc1F)c1cn(Cc2ccc(Cl)cc2)c2ccccc12 [Compound 170] | – | 100 to 500 nM |
| O=C(NCCc1cnccn1)c1cn(Cc2ccc(Cl)cc2)c2ccccc12 [Compound 171] | – | 100 to 500 nM |
| Cc1ccc(Cn2cc(C(=O)NCCc3ccncc3)c3ccccc32)cc1 [Compound 172] | – | 100 to 500 nM |

| SMILES | IC50 [1] | IC50 |
| --- | --- | --- |
| O=C(NCCc1cccnc1)c1cn(Cc2ccc(OC(F)(F)F)cc2)c2ccccc12 [Compound 173] | – | 100 to 500 nM |
| Cc1ccc(Cn2cc(C(=O)NCCc3nc4c(s3)CCC4)c3ccccc32)cc1 [Compound 174] | – | 100 to 500 nM |
| Cc1ccc(CCNC(=O)c2cn(Cc3ccc(Cl)cc3)c3ccccc23)cc1 [Compound 175] | – | 100 to 500 nM |
| COc1ccc(Cn2cc(C(=O)NCCc3cccnc3)c3ccccc32)cc1 [Compound 176] | – | 100 to 500 nM |
| COc1ccccc1CCNC(=O)c1cn(Cc2ccc(Cl)cc2)c2ccccc12 [Compound 177] | – | 100 to 500 nM |
| Cc1ccccc1CCNC(=O)c1cn(Cc2ccc(Cl)cc2)c2ccccc12 [Compound 178] | – | 100 to 500 nM |
| O=C(NCCc1ccc(F)cc1)c1cn(Cc2ccc(Cl)cc2)c2ccccc12 [Compound 179] | – | 100 to 500 nM |
| Cc1cccc(CCNC(=O)c2cn(Cc3ccc(Cl)cc3)c3ccccc23)c1 [Compound 180] | – | 100 to 500 nM |
| Cc1ccc(Cn2cc(C(=O)NCCc3cn4c(n3)SCC4)c3ccccc32)cc1 [Compound 181] | – | 100 to 500 nM |
| COc1ccc(CCNC(=O)c2cn(Cc3ccc(Cl)cc3)c3ccccc23)cc1 [Compound 182] | – | 100 to 500 nM |
| O=C(NCCc1cccnc1)c1cn(Cc2ccccc2Cl)c2ccccc12 [Compound 183] | – | 501 to 1000 nM |
| N#Cc1ccc(Cn2cc(C(=O)NCCc3ccccn3)c3ccccc32)cc1 [Compound 184] | – | 501 to 1000 nM |
| N#Cc1ccc(CCNC(=O)c2cn(Cc3ccc(Cl)cc3)c3ccccc23)cn1 [Compound 185] | – | 501 to 1000 nM |
| O=C(NCCc1cccnc1)c1cn(Cc2cccc(OC(F)(F)F)c2)c2ccccc12 [Compound 186] | – | 501 to 1000 nM |
| Cc1ccc(Cn2cc(C(=O)NCCc3ccnn3C)c3ccccc32)cc1 [Compound 187] | – | 501 to 1000 nM |
| N#Cc1ccc(Cn2cc(C(=O)NCCc3ccc(Cl)c(F)c3)c3ccccc32)cc1 [Compound 188] | – | 501 to 1000 nM |
| O=C(NCCc1cccnc1C(F)(F)F)c1cn(Cc2ccc(Cl)cc2)c2ccccc12 [Compound 189] | – | 501 to 1000 nM |
| O=C(NCCc1ccccc1C(F)(F)F)c1cn(Cc2ccc(Cl)cc2)c2ccccc12 [Compound 190] | – | 501 to 1000 nM |
| CC(=O)c1ccc(Cn2cc(C(=O)NCCc3cccnc3)c3ccccc32)cc1 [Compound 191] | – | 501 to 1000 nM |
| Cc1ccc(Cn2cc(C(=O)NCCc3nc4ccccc4s3)c3ccccc32)cc1 [Compound 192] | – | 501 to 1000 nM |
| N#Cc1ccc(Cn2cc(C(=O)NCCc3cccnc3)c3ccccc32)cc1 [Compound 193] | – | 501 to 1000 nM |
| O=C(NCCc1ccccc1OC(F)(F)F)c1cn(Cc2ccc(Cl)cc2)c2ccccc12 [Compound 194] | – | 501 to 1000 nM |
| O=C(NCCc1cccnc1)c1cn(Cc2cccc(Cl)c2)c2ccccc12 [Compound 195] | – | 501 to 1000 nM |
| Cc1ccc(Cn2cc(C(=O)NCCc3ccc(Cl)c(F)c3)c3ccccc32)cc1 [Compound 196] | – | 501 to 1000 nM |
| O=C(NCCc1ccc(C(F)(F)F)nc1)c1cn(Cc2ccc(Cl)cc2)c2ccccc12 [Compound 197] | – | 501 to 1000 nM |

| SMILES | IC50 [1] | IC50 |
| --- | --- | --- |
| O=C(NCCc1ccc(Cl)c(F)c1)c1cn(Cc2ccc(F)cc2)c2ccccc12 [Compound 198] | – | 501 to 1000 nM |
| O=C(NCCc1cccc(F)c1)c1cn(Cc2cccc(F)c2)c2ccccc12 [Compound 199] | – | 501 to 1000 nM |
| O=C(NCCc1cccc(OC(F)(F)F)c1)c1cn(Cc2ccc(Cl)cc2)c2ccccc12 [Compound 200] | – | 1000 to 2500 nM |
| Cc1cccc(Cn2cc(C(=O)NCCc3cccnc3)c3ccccc32)c1 [Compound 201] | – | 1000 to 2500 nM |
| Cc1ccc(CCNC(=O)c2cn(Cc3cccc(F)c3)c3ccccc23)cn1 [Compound 202] | – | 1000 to 2500 nM |
| COc1ncccc1CCNC(=O)c1cn(Cc2cccc(F)c2)c2ccccc12 [Compound 203] | – | 1000 to 2500 nM |
| O=C(NCCCc1ccc(Cl)c(F)c1)c1cn(Cc2ccc(Cl)cc2)c2ccccc12 [Compound 204] | – | 1000 to 2500 nM |
| O=C(NCCc1ccc(Cl)c(F)c1)c1cn(Cc2ccc(Cl)cc2)c2ccccc12 [Compound 205] | – | 1000 to 2500 nM |
| O=C(NCCc1cccc(C(F)(F)F)c1)c1cn(Cc2ccc(Cl)cc2)c2ccccc12 [Compound 206] | – | 1000 to 2500 nM |
| Cc1cnc(CCNC(=O)c2cn(Cc3ccc(Cl)cc3)c3ccccc23)nc1 [Compound 207] | – | 1000 to 2500 nM |
| O=C(NCCc1ccc(C(F)(F)F)cc1)c1cn(Cc2ccc(Cl)cc2)c2ccccc12 [Compound 208] | – | 1000 to 2500 nM |
| O=C(NCCc1ccc(Cl)c(F)c1)c1cn(Cc2ccc(C(F)(F)F)cc2)c2ccccc12 [Compound 209] | – | 1000 to 2500 nM |
| O=C(NCCc1ccc(Cl)c(F)c1)c1cn(Cc2cccc(F)c2)c2ccccc12 [Compound 210] | – | 1000 to 2500 nM |
| COc1cccc(Cn2cc(C(=O)NCCc3cccnc3)c3ccccc32)c1 [Compound 211] | – | 1000 to 2500 nM |
| Cc1ncccc1CCNC(=O)c1cn(Cc2cccc(F)c2)c2ccccc12 [Compound 212] | – | 1000 to 2500 nM |
| CC(C)(CNC(=O)c1cn(Cc2cccc(F)c2)c2ccccc12)c1cccnc1 [Compound 213] | – | 1000 to 2500 nM |
| O=C(NCCc1ccccn1)c1cn(Cc2cccc(F)c2)c2ccccc12 [Compound 214] | – | 1000 to 2500 nM |
| O=C(NCCc1cncnc1)c1cn(Cc2ccc(Cl)cc2)c2ccccc12 [Compound 215] | – | 1000 to 2500 nM |
| COc1ccc(CCNC(=O)c2cn(Cc3cccc(F)c3)c3ccccc23)cn1 [Compound 216] | – | 1000 to 2500 nM |
| O=C(NCCc1ccccn1)c1cn(CCc2ccc(Cl)cc2)c2ccccc12 [Compound 217] | 1000 to 2500 nM | – |
| COc1ccc(Cn2cc(C(=O)NCCc3ccc(Cl)c(F)c3)c3ccccc32)cc1 [Compound 218] | – | 1000 to 2500 nM |
| O=C(NCCc1ccncc1)c1cn(Cc2cccc(F)c2)c2ccccc12 [Compound 219] | – | 1000 to 2500 nM |
| O=C(NCCc1ccc(=O)[nH]c1)c1cn(Cc2ccc(Cl)cc2)c2ccccc12 [Compound 220] | – | 1000 to 2500 nM |
| COc1ccccc1CCNC(=O)c1cn(Cc2cccc(F)c2)c2ccccc12 [Compound 221] | – | 1000 to 2500 nM |
